Assay results taken from ChEMBL document CHEMBL5230106, “The wide-spectrum antimicrobial effect of novel N-alkyl monoquaternary ammonium salts and their mixtures; the QSAR study against bacteria” (Eur J Med Chem, 2020).
Active and inactive are the calls of the source. The rule behind the calls is not given here.

Assays:
[1] = tested on: CHO-K1; test: Cytotoxicity against CHO-K1 cells assessed as reduction in cell viability incubated for 24 hrs by MTT assay; assay type: toxicity, cell-based, Cricetulus griseus; conditions: chinese hamster, cho-k1, 24 h
[2] = tested on: Clostridioides difficile; test: Antibacterial activity against Clostridium difficile at 0.5 % measured after 8 mins by broth microdilution analysis; assay type: functional, organism-based
[3] = tested on: Human alphaherpesvirus 3; test: Antiviral activity against Varicella zoster-virus assessed as reduction factor at 0.005 % measured for 5 mins by crystal violet staining based microscopic analysis; assay type: functional
[4] = tested on: Aspergillus niger; test: Antifungal activity against Aspergillus niger EXF-10185 assessed as inhibition of fungal growth at 100 uM measured after 72 hrs; assay type: functional, organism-based
[5] = tested on: Penicillium chrysogenum; test: Antifungal activity against Penicillium chrysogenum EXF-1818 assessed as inhibition of fungal growth at 100 uM measured after 72 hrs; assay type: functional, organism-based
[6] = tested on: Aspergillus versicolor; test: Antifungal activity against Aspergillus versicolor EXF-8692 assessed as inhibition of fungal growth at 100 uM measured after 72 hrs; assay type: functional, organism-based
[7] = tested on: Fusarium dimerum; test: Antifungal activity against Fusarium dimerum EXF-8427 assessed as inhibition of fungal growth at 100 uM measured after 72 hrs; assay type: functional, organism-based

| Compound | Activity [1] | fold change (FC) [3] | also measured |
| --- | --- | --- | --- |
| CCCCCCCCCCCCCCCC[N+]1(CCO)CCOCC1.[Br-] | Toxic | – | – |
| CCCCCCCCCCCC[N+]1(CCO)CCOCC1.[Br-] | Toxic | – | Activity [2]: Active |
| CCCCCCCCCCCCCCCC[N+](C)(C)CCCCCCCC.[Br-] | – | 3.83 | – |
| CCCCCCCCCCCCCCCC[n+]1cccc(OC)c1.[Br-] | – | 4.68 | – |
| CCCCCCCCCCCCCC[N+]1(CCO)CCOCC1.[Br-] | Toxic | – | – |
| CCCCCCCCCCCC[N+](C)(C)CCCCCCCC | – | – | Activity [4]: Active; Activity [5]: Active; Activity [2]: Active; Activity [6]: Active; Activity [7]: Active |
| CCCCCCCC[N+](C)(CCCCCCCC)Cc1ccccc1.[Br-] | – | 3.84 | – |
